Activity calls are given as the source filed them. No cut-off for these calls is given here.
Molecular target: Receptor tyrosine-protein kinase erbB-2 (Homo sapiens, UniProt P04626)
Test: Binding affinity to synthetic peptide mimicking HER2 subdomain 4 (unknown origin) by fluorescence spectroscopic analysis

Receptor tyrosine-protein kinase erbB-2, sequence (P04626 whole entry): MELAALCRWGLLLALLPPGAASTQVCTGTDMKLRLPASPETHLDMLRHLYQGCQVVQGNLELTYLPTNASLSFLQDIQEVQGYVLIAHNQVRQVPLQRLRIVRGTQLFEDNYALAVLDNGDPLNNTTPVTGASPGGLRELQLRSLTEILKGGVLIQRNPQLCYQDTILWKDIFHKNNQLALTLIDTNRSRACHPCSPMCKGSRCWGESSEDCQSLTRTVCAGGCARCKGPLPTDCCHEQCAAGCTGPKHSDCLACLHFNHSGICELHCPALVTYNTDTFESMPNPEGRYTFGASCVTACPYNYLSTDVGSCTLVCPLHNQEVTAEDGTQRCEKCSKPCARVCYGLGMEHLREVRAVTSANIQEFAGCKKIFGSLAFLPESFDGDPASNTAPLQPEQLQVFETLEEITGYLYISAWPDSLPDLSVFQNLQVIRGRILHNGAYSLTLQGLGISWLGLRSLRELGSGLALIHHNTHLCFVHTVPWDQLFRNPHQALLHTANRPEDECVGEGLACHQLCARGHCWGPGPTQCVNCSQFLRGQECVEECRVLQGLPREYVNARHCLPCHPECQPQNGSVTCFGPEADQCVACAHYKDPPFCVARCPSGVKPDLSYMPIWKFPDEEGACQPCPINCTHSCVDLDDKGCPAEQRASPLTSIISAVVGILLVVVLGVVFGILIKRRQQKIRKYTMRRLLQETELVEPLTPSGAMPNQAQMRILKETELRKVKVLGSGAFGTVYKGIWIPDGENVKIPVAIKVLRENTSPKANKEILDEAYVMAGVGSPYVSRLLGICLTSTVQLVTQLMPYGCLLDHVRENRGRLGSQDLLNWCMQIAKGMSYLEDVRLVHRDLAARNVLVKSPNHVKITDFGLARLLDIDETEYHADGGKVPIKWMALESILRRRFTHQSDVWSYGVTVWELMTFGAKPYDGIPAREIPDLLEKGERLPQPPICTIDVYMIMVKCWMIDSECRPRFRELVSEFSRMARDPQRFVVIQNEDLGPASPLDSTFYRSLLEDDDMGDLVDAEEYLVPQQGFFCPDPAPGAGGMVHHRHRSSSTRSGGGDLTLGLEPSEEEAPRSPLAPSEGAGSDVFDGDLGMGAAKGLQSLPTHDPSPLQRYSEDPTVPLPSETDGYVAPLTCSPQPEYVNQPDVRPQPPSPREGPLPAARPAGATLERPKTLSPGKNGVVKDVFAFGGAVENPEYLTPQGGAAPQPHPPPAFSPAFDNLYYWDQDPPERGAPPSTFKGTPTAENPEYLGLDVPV

Kd [nM] | Activity | Substance
446 | – | Ac-ARIYPTNGYTRY-NH2
174 | – | Ac-CQQHYTTPPTFG-NH2
– | inactive | Ac-CSRWGGDGFYAMDYWG-NH2
10.2 | – | Ac-QDVNTAVAW-NH2
